Drawing on ChEMBL document CHEMBL4414621, “Thiohydantoin and Hydantoin Derivatives from the Roots of Armoracia rusticana and Their Neurotrophic and Anti-neuroinflammatory Activities” (J Nat Prod, 2019), this text covers viability, Activity and IC50 for 14 molecules.

A short description of series [1]: Cytotoxicity against rat C6 cells assessed as cell viability at 20 uM incubated for 24 hrs by MTT assay relative to control. The series is classed as cell-based. The settings on record: read-out: Activity. In general terms: Tetrazolium dyes change colour on reduction, which living cells bring about.
Series [2] has as its system C6. The series is described as follows: Neuroprotective activity in rat C6 cells assessed as NGF secretion at 20 uM incubated for 24 hrs by ELISA relative to control. The series is classed as functional. Background: In an ELISA, binding on a coated surface is turned into a signal by an enzyme label.
For series [3], the system named is BV-2. The series is described as follows: Antineuroinflammatory activity against mouse BV2 cells assessed as inhibition in LPS-induced NO production preincubated for 30 mins followed b LPS addition and measured after 24 hr by griess reagent based assay. The series is classed as functional, cell-based. A general note: Nitrite, measured by Griess reagent, commonly stands in for NO production.

As a reminder, the IC50 is the concentration at which inhibition is half-maximal.

With `C=CCN1C(=O)N2CCC[C@@]2(O)C1=O`, the viability at 24 h, 20 µM in series [1] was 97.3%. The Activity in series [2] came to 110.66%.
With `NC(=O)NCCc1ccccc1`, in series [3], the IC50 stood at 32.6 µM. Moreover, the viability at 24 h, 20 µM in series [1] worked out at 107%. Moreover, the Activity in series [2] came to 105.82%.
For `C=CCN1C(=O)[C@@]2(O)CCCN2C1=S`, the viability at 24 h, 20 µM in series [1] was determined as 114%. In addition, in series [2], the Activity is listed as 153.59%.
For `C=CCN1C(=O)[C@]2(O)CCCN2C1=S` the same measures were 106% and 93.41%.
Consider `O=C1N(CCc2ccccc2)C(=O)[C@@]2(O)CCCN12`, for which the viability at 24 h, 20 µM in series [1] stood at 106%. Besides, the Activity in series [2] was found to be 115.13%.
For `O=C1N(CCc2ccccc2)C(=S)N2CCC[C@@]12O` the same measures were 112% and 75.08%.
As to `CCCCC/C=C/C(=O)CCc1ccc(O)c(OC)c1` [SHOGAOL], in series [1], the viability at 24 h, 20 µM came out at 111%. Also, the Activity in series [2] is reported as 140.69%.
In the case of `O=C1C2CCCN2C(=S)N1Cc1ccccc1` (stereo not drawn), the viability at 24 h, 20 µM in series [1] turned out to be 109%. Further, the Activity in series [2] stood at 105.88%.
For the molecule `CNC(=N)NCCC[C@H](N)C(=O)O` [TILARGININE], the IC50 in series [3] was 21.9 µM.
For the molecule `O=C1N(CCc2ccccc2)C(=O)[C@]2(O)CCCN12`, the viability at 24 h, 20 µM in series [1] came to 91.2%. Also, the Activity in series [2] came to 98.7%.
As for `O=C1[C@@H]2CCCN2C(=O)N1CCc1ccccc1`, the viability at 24 h, 20 µM in series [1] was 111%. The Activity in series [2] amounted to 111.26%.
As to `C=CCN1C(=O)N2CCC[C@]2(O)C1=O`, in series [1], the viability at 24 h, 20 µM is 100%. Further, in series [2], the Activity came to 141.99%.
For `O=C1N(CCc2ccccc2)C(=S)N2CCC[C@]12O`, the viability at 24 h, 20 µM in series [1] is 108%. In addition, the Activity in series [2] is recorded as 100.68%.
`CSC1=NC[C@]2(S1)C(=O)Nc1ccccc12`: the viability at 24 h, 20 µM in series [1] stood at 88.2%. The Activity in series [2] is reported as 96.3%.
